How the values were obtained:
GenS2 = target: T1, GenS2 (Micromonospora echinospora, UniProt Q70KD4); experiment: LC-ESI-HRMS of […]″-deamination; type: biochemical; settings: 2-oxoglutarate 1 mM as amino acceptor, Tris-HCl pH 7.5, 30°C; reverse reaction; GenS2 alone
T1 construct: gene gtmD; full length, N-terminal His6 tag (pET28a), initiator Met lost, tag kept; E. coli BL21(DE3)

GenD2 = target: T2, GenD2 (Micromonospora echinospora, UniProt Q70KD1); experiment: coupled reverse reaction from kanamycin B, LC-ESI-HRMS; type: biochemical; settings: NADH or NADPH 2.5 mM; ketone generated in situ by GenS2 with 2-oxoglutarate; Tris-HCl pH 7.5, 30°C
T2 construct: gene gtmC; full length, N-terminal His6 tag (pET28a), initiator Met lost, tag kept; E. coli BL21(DE3); 38,533 Da (calc. 38,539)
T2 sequence (Q70KD1 entry or part of it): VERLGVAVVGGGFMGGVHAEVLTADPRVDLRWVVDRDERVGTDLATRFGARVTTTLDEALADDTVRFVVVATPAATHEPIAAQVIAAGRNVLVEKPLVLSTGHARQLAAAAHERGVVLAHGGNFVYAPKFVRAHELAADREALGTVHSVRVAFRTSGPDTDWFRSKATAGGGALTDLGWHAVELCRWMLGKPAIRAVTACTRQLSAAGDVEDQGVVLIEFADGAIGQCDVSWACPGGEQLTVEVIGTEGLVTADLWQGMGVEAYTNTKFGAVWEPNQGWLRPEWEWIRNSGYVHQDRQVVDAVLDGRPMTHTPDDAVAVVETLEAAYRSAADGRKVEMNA

[1] = substrate: NC[C@H]1O[C@H](O[C@H]2[C@H](O)[C@@H](O[C@H]3O[C@H](CO)[C@@H](O)[C@H](N)[C@H]3O)[C@H](N)C[C@@H]2N)[C@H](N)[C@@H](O)[C@@H]1O; experiment: SAM-dependent N-methylation kinetics (details in supplement); type: biochemical, Micromonospora echinospora; settings: co-substrate SAM; 3″-N-methylation

T1 sequence (Q70KD4 2-418): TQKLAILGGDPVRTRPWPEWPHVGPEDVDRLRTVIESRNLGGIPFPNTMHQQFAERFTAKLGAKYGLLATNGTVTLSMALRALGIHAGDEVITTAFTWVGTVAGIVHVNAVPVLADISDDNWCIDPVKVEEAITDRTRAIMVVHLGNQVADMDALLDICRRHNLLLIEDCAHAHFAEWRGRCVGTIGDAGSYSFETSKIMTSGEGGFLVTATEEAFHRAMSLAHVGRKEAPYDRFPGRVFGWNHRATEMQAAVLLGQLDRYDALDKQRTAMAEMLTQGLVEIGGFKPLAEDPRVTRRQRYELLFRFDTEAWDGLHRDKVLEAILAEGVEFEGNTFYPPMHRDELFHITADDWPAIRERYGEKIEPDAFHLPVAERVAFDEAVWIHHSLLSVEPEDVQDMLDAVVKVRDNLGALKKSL

Molecule: NC[C@H]1O[C@H](O[C@H]2[C@H](O)[C@@H](O[C@H]3O[C@H](CO)[C@@H](O)[C@H](N)[C@H]3O)[C@H](N)C[C@@H]2N)[C@H](N)[C@@H](O)[C@@H]1O [compound 11, kanamycin B]
- LC-ESI-HRMS of 3′′-deamination (GenS2): LC-ESI-HRMS analysis showed that GenS2 catalyzed low-level deamination of both compounds

Molecule: NC[C@H]1O[C@H](O[C@H]2[C@H](O)[C@@H](O[C@H]3O[C@H](CO)[C@@H](O)[C@H](N)[C@H]3O)[C@H](N)C[C@@H]2N)[C@H](N)C[C@@H]1O [compound 12, tobramycin]
- LC-ESI-HRMS of 3′′-deamination (GenS2): LC-ESI-HRMS analysis showed that GenS2 catalyzed low-level deamination of both compounds

Molecule: NC[C@H]1O[C@H](O[C@H]2[C@H](O)[C@@H](O[C@H]3O[C@H](CO)[C@@H](O)C(=O)[C@H]3O)[C@H](N)C[C@@H]2N)[C@H](N)[C@@H](O)[C@@H]1O [compound 13, 3″-deamino-3″-oxo-kanamycin B]
- coupled reverse reaction from kanamycin B, LC-ESI-HRMS (GenD2): in the presence of GenS2 and GenD2 (and either NADH or NADPH) essentially quantitative yields

B1: GenN (Micromonospora echinospora) (protein)
chain: IVGGSTIQPERVDAAALRQLGDAMRKVVGSADPTPLADLLSGTPVDPDELTREVGADGRQALLDSGMAVDDGTTFSSPLRGHQLHGVVVLSDPDVEEEVQHRWYVDPLWEADLLIRLMLRRGGARALDMGCGSGVLSLVLADRYESVLGVDVNPRAVALSRLNAALNGLTNVTFREGDMFEPAEGRFSRIVFNSPTNEEGNEFVDLLEAGEPILETFFRNVPRKLESGGIVEVNLAMNDYPGDPFRERLADWLGLTENGLRVQIFTSQRRATESGGEWKRGWLVVAPGPVGLTEVEWPYHDRYEEDPDALLDGTDRLLRG
notes: full length, N-terminal His6 tag (pET28a), initiator Met lost, tag kept; E. coli BL21(DE3)
- Km [1]: 34 ± 3.8 µM
- kcat [1]: 1.93 ± 0.1 s⁻¹
